The values below come from US20240209456A1, “METHODS AND COMPOSITIONS RELATED TO CELL-CYCLE RNA's” (BETH ISRAEL DEACONESS MEDICAL CENTER, priority 2021, published 2024).

This assay relates to HL-60 cells. The assay can be described thus: nasRNA-seq, genome wide transcription inhibition upon DRB and ActD treatment. The format is cell-based, human. The settings on record: HL-60 released from double thymidine block, 2 hr, DRB 200 μM, ActD 0.8 μM; for average gene expression reduction: vs DMSO. How it is done: Nascent RNA/DNA capture was performed using Click-iT Nascent RNA Capture Kit (ThermoFisher) according to the manufacturer's instructions with minor modifications. Briefly, 1. Labeling the cells with EU/EdU. 200 mM EU or 30 mM EdU stock solutions were added to the cells, to a final concentration 0.5 mM or 30 μM, respectively. 2. Incubation. The cells were incubated for 1 or 2 hours. 3. RNA/DNA isolation. The cells were harvested and the RNA/DNA were isolated and dissolved in 14 μL of H2O. 4. Biotinylation of RNA/DNA by Click reaction. Click-iT reaction cocktail (50 μL per reaction) was prepared accordingly to manufacturer's instructions: a mixture containing 1× Click-iT EU buffer; 2 mM CuSO4; 1 mM Biotin azide; 13.25 μL of the isolated RNA; 10 mM Click-iT reaction buffer additive 1; 12 mM Click-iT reaction buffer additive 2 was prepared. After adding each component, the reaction cocktail was gently mixed by vortexing. The addition of the Click-iT reaction buffer additive 1 stock initiates the click reaction between the EU-RNA/EdU-DNA and biotin azide. Afterwards the Click-iT® reaction buffer additive 2 is added and incubated for 30 minutes with gentle vortexing. 5. RNA/DNA precipitation. 1 μL of ULTRAPURE™ Glycogen, 55 μL of 7 M ammonium acetate, and 750 μL of chilled 100% ethanol were added to the click reaction, incubated at −70° C. for at least 30 minutes and after centrifugation the pellet was dissolved in 125 μL of H2O. 6. Binding biotinylated RNA/DNA to Dynabeads® MYONE™ Streptavidin Ti magnetic beads. The RNA/DNA binding reaction mixture included: 125 μL 2×Click-iT RNA binding buffer; 2 μL Ribonuclease Inhibitor or 2 μL of water for DNA; 125 μL of the isolated biotinylated RNA/DNA. The RNA binding reaction mixture was heated at 68-70° C. for 5 minutes and 50 μL of bead suspension added into the heated RNA binding reaction mixture. The tube containing the RNA/DNA binding reaction was incubated at r.t. for 30 min while gently vortexing to prevent the beads from settling. The beads were immobilized using the magnet and washed 5 times with 500 μL of Click-iT® reaction wash buffer 1 and 5 times with 500 μL of Click-iT® reaction wash buffer 2. Finally, the beads were resuspended in 50 μL of Click-iT reaction wash buffer 2 and the captured RNA immediately processed to cDNA synthesis. The captured DNA was released into 50 μL of boiling water and used in qPCR analyses.
Double Thymidine block (early S-phase block) was carried out as described. […] Synchrony was monitored by flow cytometry analysis of propidium iodide-stained cells using a LSRII flow cytometer (BD Biosciences) at the Harvard Stem Cell Institute/Beth Israel Deaconess Center flow cytometry facility. […]

*1 amine or outer side, *2 acyl side, *3 side chain or, on linkers, in order; H or OH if unused. Where a SMILES comes first, the peptide text is derived from it. Bridges are numbered along the chain shown (N, C = ends). Roman numbers before positions name the chains, in order. [ ]: non-standard residue; d: D form. Actinocin(9to1) = Cc1c2oc3c(C)ccc(C(=O)[*:1])c3nc-2c(C(=O)[*:2])c(N)c1=O; NMeV = CN[C@H](C(=O)O)C(C)C; Sar = CNCC(=O)O

Regarding `Cc1c2oc3c(C)ccc(C(=O)N[C@@H]4C(=O)N[C@H](C(C)C)C(=O)N5CCC[C@H]5C(=O)N(C)CC(=O)N(C)[C@@H](C(C)C)C(=O)O[C@@H]4C)c3nc-2c(C(=O)N[C@@H]2C(=O)N[C@H](C(C)C)C(=O)N3CCC[C@H]3C(=O)N(C)CC(=O)N(C)[C@@H](C(C)C)C(=O)O[C@@H]2C)c(N)c1=O` [ActD, Actinomycin D] (I: T[dV]P[Sar][NMeV] / II: T[dV]P[Sar][NMeV]; ester I:1-I:C, II:1-II:C; linker I:N-II:N via Actinocin(9to1)), the “gene expression reduction ratio across distributions (treated/DMSO)” value is listed as 0.21 and the “average gene expression reduction” value is 79%.

On to `OC[C@H]1O[C@@H](n2cnc3cc(Cl)c(Cl)cc32)[C@H](O)[C@@H]1O` [DRB, 5,6-Dichlorobenzimidazole 1-β-D-ribofuranoside], for which the “gene expression reduction ratio across distributions (treated/DMSO)” value stood at 0.45 and the “average gene expression reduction” value is reported as 55%.
